# Laboratory results from paper PMC6100082, “Pyridine-Ureas as Potential Anticancer Agents: Synthesis and In Vitro Biological Evaluation” (Molecules : A Journal of Synthetic Chemistry and Natural …, 2018).
# How the values were obtained:
# Format in all cases: cell-based, human
# CCRF-CEM = assay: NCI one-dose SRB assay (Leukemia); details: for Growth Percent: 1.00E-5 Molar; for inhibition at 10 µM: Homo sapiens, read-out: Percentage growth inhibition (GI%)
# Description: (§1) The structures of all the newly prepared pyridine-ureas 8a–n were submitted to the National Cancer Institute (NCI) Developmental Therapeutic Program. Eight compounds 8b, 8d, 8e, 8i, 8j and 8l–n were selected to be examined for their in vitro growth inhibitory activity. The anticancer assays were carried out according to the protocol of the Drug Evaluation Branch, NCI, Bethesda. The selected pyridine-ureas were tested at one dose primary anticancer assay against a panel of approximately 58 cancer lines (concentration 10^−5 M). The tested human cancer cell lines emerged from nine different cancer subtypes: leukemia, colon, melanoma, ovarian, lung, CNS, renal, breast and prostate cancers. The sulforhodamine B (SRB) protein assay was adopted to estimate the cell viability and growth. The results were reported as mean-graph of the percentage growth of the treated cells, and presented as percentage growth inhibition (GI%) caused by the test compounds (Table 2).
# (§2) The anticancer assays were performed in accordance with the protocol of the Drug Evaluation Branch, NCI, Bethesda. A 48 h drug exposure protocol was used and sulforhodamine B (SRB) protein assay was applied to estimate the cell viability and growth, as reported earlier.
# K-562 = assay: NCI one-dose SRB assay (Leukemia); details: for inhibition at 10 µM: Homo sapiens, K562, K-562, 10 μM, read-out: Percentage growth inhibition (GI%); for Growth Percent: K-562, 1.00E-5 Molar
# Description: as §1, §2
# SR = assay: NCI one-dose SRB assay (Leukemia); details: for Growth Percent: 1.00E-5 Molar; for inhibition at 10 µM: Homo sapiens, read-out: Percentage growth inhibition (GI%)
# Description: as §1, §2
# A549/ATCC = assay: NCI one-dose SRB assay (Non-Small Cell Lung Cancer); details: for Growth Percent: 1.00E-5 Molar; for inhibition at 10 µM: Homo sapiens, read-out: Percentage growth inhibition (GI%)
# Description: as §1, §2
# EKVX = assay: as above; details: for Growth Percent: 1.00E-5 Molar; for inhibition at 10 µM: Homo sapiens, read-out: Percentage growth inhibition (GI%)
# Description: as §1, §2
# HOP-62 = assay: as above; details: for Growth Percent: HOP-62, 1.00E-5 Molar; for inhibition at 10 µM: Homo sapiens, HOP-62, 10 μM, read-out: Percentage growth inhibition (GI%)
# Description: as §1, §2
# HOP-92 = assay: as above; details: for Growth Percent: HOP-92, 1.00E-5 Molar; for inhibition at 10 µM: Homo sapiens, HOP-92, 10 μM, read-out: Percentage growth inhibition (GI%)
# Description: as §1, §2
# NCI-H226 = assay: as above; details: for inhibition at 10 µM: Homo sapiens, NCI-H226, 10 μM, read-out: Percentage growth inhibition (GI%); for Growth Percent: NCI-H226, 1.00E-5 Molar
# Description: as §1, §2
# NCI-H23 = assay: as above; details: for inhibition at 10 µM: Homo sapiens, NCI-H23, 10 μM, read-out: Percentage growth inhibition (GI%); for Growth Percent: NCI-H23, 1.00E-5 Molar
# Description: as §1, §2
# NCI-H322M = assay: as above; details: for Growth Percent: 1.00E-5 Molar; for inhibition at 10 µM: Homo sapiens, read-out: Percentage growth inhibition (GI%)
# Description: as §1, §2
# NCI-H460 = assay: as above; details: for inhibition at 10 µM: Homo sapiens, NCI-H460, 10 μM, read-out: Percentage growth inhibition (GI%); for Growth Percent: NCI-H460, 1.00E-5 Molar
# Description: as §1, §2
# NCI-H522 = assay: as above; details: for inhibition at 10 µM: Homo sapiens, NCI-H522, 10 μM, read-out: Percentage growth inhibition (GI%); for Growth Percent: NCI-H522, 1.00E-5 Molar
# Description: as §1, §2
# SF-268 = assay: NCI one-dose SRB assay (CNS Cancer); details: for inhibition at 10 µM: Homo sapiens, SF-268, 10 μM, read-out: Percentage growth inhibition (GI%); for Growth Percent: SF-268, 1.00E-5 Molar
# Method in brief: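 Growth of the human tumour line after 48 h with 10^−5 M compound was quantified by sulforhodamine B protein staining, giving percentage growth inhibition.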
# LOX IMVI = assay: NCI one-dose SRB assay (Melanoma); details: for Growth Percent: 1.00E-5 Molar; for inhibition at 10 µM: Homo sapiens, read-out: Percentage growth inhibition (GI%)
# Description: as §1, §2
# M14 = assay: NCI one-dose SRB assay (Melanoma); details: for inhibition at 10 µM: Homo sapiens, M14, 10 μM, read-out: Percentage growth inhibition (GI%); for Growth Percent: M14, 1.00E-5 Molar
# Description: as §1, §2
# MALME-3M = assay: NCI one-dose SRB assay (Melanoma); details: for Growth Percent: 1.00E-5 Molar; for inhibition at 10 µM: Homo sapiens, read-out: Percentage growth inhibition (GI%)
# Description: as §1, §2
# MDA-MB-435 = assay: NCI one-dose SRB assay (Melanoma); details: for inhibition at 10 µM: Homo sapiens, MDA-MB-435, 10 μM, read-out: Percentage growth inhibition (GI%); for Growth Percent: MDA-MB-435, 1.00E-5 Molar
# Description: as §1, §2
# SK-MEL-28 = assay: NCI one-dose SRB assay (Melanoma); details: for inhibition at 10 µM: Homo sapiens, SK-MEL-28, 10 μM, read-out: Percentage growth inhibition (GI%); for Growth Percent: SK-MEL-28, 1.00E-5 Molar
# Description: as §1, §2
# SK-MEL-2 = assay: NCI one-dose SRB assay (Melanoma); details: for inhibition at 10 µM: Homo sapiens, SK-MEL-2, 10 μM, read-out: Percentage growth inhibition (GI%); for Growth Percent: SK-MEL-2, 1.00E-5 Molar
# Description: as §1, §2
# SK-MEL-5 = assay: NCI one-dose SRB assay (Melanoma); details: for inhibition at 10 µM: Homo sapiens, SK-MEL-5, 10 μM, read-out: Percentage growth inhibition (GI%); for Growth Percent: SK-MEL-5, 1.00E-5 Molar
# Description: as §1, §2
# UACC-257 = assay: NCI one-dose SRB assay (Melanoma); details: for inhibition at 10 µM: Homo sapiens, UACC-257, 10 μM, read-out: Percentage growth inhibition (GI%); for Growth Percent: UACC-257, 1.00E-5 Molar
# Description: as §1, §2
# UACC-62 = assay: NCI one-dose SRB assay (Melanoma); details: for inhibition at 10 µM: Homo sapiens, UACC-62, 10 μM, read-out: Percentage growth inhibition (GI%); for Growth Percent: UACC-62, 1.00E-5 Molar
# Description: as §1, §2
# 786-0 = assay: NCI one-dose SRB assay (Renal Cancer); details: for Growth Percent: 786-0, 1.00E-5 Molar; for inhibition at 10 µM: Homo sapiens, 786-0, 10 μM, read-out: Percentage growth inhibition (GI%)
# Description: as §1, §2
# A498 = assay: NCI one-dose SRB assay (Renal Cancer); details: for Growth Percent: A498, 1.00E-5 Molar; for inhibition at 10 µM: Homo sapiens, A498, 10 μM, read-out: Percentage growth inhibition (GI%)
# Description: as §1, §2
# RXF 393 = assay: NCI one-dose SRB assay (Renal Cancer); details: for inhibition at 10 µM: Homo sapiens, RXF 393, 10 μM, read-out: Percentage growth inhibition (GI%); for Growth Percent: RXF 393, 1.00E-5 Molar
# Description: as §1, §2
# SN12C = assay: NCI one-dose SRB assay (Renal Cancer); details: for Growth Percent: 1.00E-5 Molar; for inhibition at 10 µM: Homo sapiens, read-out: Percentage growth inhibition (GI%)
# Description: as §1, §2
# TK-10 = assay: NCI one-dose SRB assay (Renal Cancer); details: for inhibition at 10 µM: Homo sapiens, TK-10, 10 μM, read-out: Percentage growth inhibition (GI%); for Growth Percent: TK-10, 1.00E-5 Molar
# Description: as §1, §2
# UO-31 = assay: NCI one-dose SRB assay (Renal Cancer); details: for inhibition at 10 µM: Homo sapiens, UO-31, 10 μM, read-out: Percentage growth inhibition (GI%); for Growth Percent: UO-31, 1.00E-5 Molar
# Description: as §1, §2
structure (smiles),measurement,setting,value
"COc1ccc(-c2ccc(NC(=O)Nc3cccc(C(F)(F)F)c3)c(C)n2)cc1OC [Compound 8i, 1-(6-(3,4-Dimethoxyphenyl)-2-methylpyridin-3-yl)-3-(3-(trifluoromethyl)phenyl) Urea]",Growth Percent,CCRF-CEM,50.94%
same,inhibition at 10 µM,CCRF-CEM,50%
same,inhibition at 10 µM,K-562,69%
same,Growth Percent,K-562,31.93%
same,Growth Percent,SR,51.13%
same,inhibition at 10 µM,SR,49%
same,Growth Percent,A549/ATCC,60.26%
same,inhibition at 10 µM,A549/ATCC,40%
same,Growth Percent,EKVX,66.90%
same,inhibition at 10 µM,EKVX,34%
same,Growth Percent,HOP-62,92.32%
same,inhibition at 10 µM,HOP-62,< 10%
same,Growth Percent,HOP-92,55.33%
same,inhibition at 10 µM,HOP-92,45%
same,inhibition at 10 µM,NCI-H226,28%
same,Growth Percent,NCI-H226,72.63%
same,inhibition at 10 µM,NCI-H23,29%
same,Growth Percent,NCI-H23,71.94%
same,Growth Percent,NCI-H322M,92.59%
same,inhibition at 10 µM,NCI-H322M,< 10%
same,inhibition at 10 µM,NCI-H460,39%
same,Growth Percent,NCI-H460,61.77%
same,inhibition at 10 µM,NCI-H522,60%
same,Growth Percent,NCI-H522,40.25%
same,inhibition at 10 µM,SF-268,25%
same,Growth Percent,SF-268,75.96%
same,Growth Percent,LOX IMVI,70.96%
same,inhibition at 10 µM,LOX IMVI,30%
same,inhibition at 10 µM,M14,69%
same,Growth Percent,M14,31.21%
same,Growth Percent,MALME-3M,95.26%
same,inhibition at 10 µM,MALME-3M,< 10%
same,inhibition at 10 µM,MDA-MB-435,27%
same,Growth Percent,MDA-MB-435,73.17%
same,inhibition at 10 µM,SK-MEL-28,25%
same,Growth Percent,SK-MEL-28,75.52%
same,inhibition at 10 µM,SK-MEL-2,27%
same,Growth Percent,SK-MEL-2,73.78%
same,inhibition at 10 µM,SK-MEL-5,42%
same,Growth Percent,SK-MEL-5,58.49%
same,inhibition at 10 µM,UACC-257,19%
same,Growth Percent,UACC-257,81.62%
same,inhibition at 10 µM,UACC-62,19%
same,Growth Percent,UACC-62,81.66%
same,Growth Percent,786-0,69.08%
same,inhibition at 10 µM,786-0,31%
same,Growth Percent,A498,61.34%
same,inhibition at 10 µM,A498,39%
same,inhibition at 10 µM,RXF 393,23%
same,Growth Percent,RXF 393,77.55%
same,Growth Percent,SN12C,79.32%
same,inhibition at 10 µM,SN12C,21%
same,inhibition at 10 µM,TK-10,21%
same,Growth Percent,TK-10,79.75%
same,inhibition at 10 µM,UO-31,26%
same,Growth Percent,UO-31,74.95%
"COc1ccc(-c2ccc(NC(=O)Nc3cccc(Cl)c3)c(C)n2)cc1OC [Compound 8j, 1-(3-Chlorophenyl)-3-(6-(3,4-dimethoxyphenyl)-2-methylpyridin-3-yl) Urea]",Growth Percent,CCRF-CEM,68.29%
same,inhibition at 10 µM,CCRF-CEM,32%
same,inhibition at 10 µM,K-562,60%
same,Growth Percent,K-562,40.86%
same,Growth Percent,SR,52.07%
same,inhibition at 10 µM,SR,48%
same,Growth Percent,A549/ATCC,61.64%
same,inhibition at 10 µM,A549/ATCC,39%
same,Growth Percent,EKVX,83.81%
same,inhibition at 10 µM,EKVX,17%
same,Growth Percent,HOP-62,77.77%
same,inhibition at 10 µM,HOP-62,23%
same,Growth Percent,HOP-92,60.18%
same,inhibition at 10 µM,HOP-92,40%
same,inhibition at 10 µM,NCI-H226,< 10%
same,Growth Percent,NCI-H226,91.65%
same,inhibition at 10 µM,NCI-H23,11%
same,Growth Percent,NCI-H23,89.49%
same,Growth Percent,NCI-H322M,85.92%
same,inhibition at 10 µM,NCI-H322M,15%
same,inhibition at 10 µM,NCI-H460,17%
same,Growth Percent,NCI-H460,83.94%
same,inhibition at 10 µM,NCI-H522,41%
same,Growth Percent,NCI-H522,59.88%
same,inhibition at 10 µM,SF-268,13%
same,Growth Percent,SF-268,87.00%
same,Growth Percent,LOX IMVI,80.89%
same,inhibition at 10 µM,LOX IMVI,20%
same,inhibition at 10 µM,M14,50%
same,Growth Percent,M14,50.80%
same,Growth Percent,MALME-3M,98.93%
same,inhibition at 10 µM,MALME-3M,< 10%
same,inhibition at 10 µM,MDA-MB-435,13%
same,Growth Percent,MDA-MB-435,87.66%
same,inhibition at 10 µM,SK-MEL-28,21%
same,Growth Percent,SK-MEL-28,79.52%
same,inhibition at 10 µM,SK-MEL-2,16%
same,Growth Percent,SK-MEL-2,84.73%
same,inhibition at 10 µM,SK-MEL-5,32%
same,Growth Percent,SK-MEL-5,68.63%
same,inhibition at 10 µM,UACC-257,29%
same,Growth Percent,UACC-257,71.26%
same,inhibition at 10 µM,UACC-62,25%
same,Growth Percent,UACC-62,75.01%
same,Growth Percent,786-0,71.87%
same,inhibition at 10 µM,786-0,29%
same,Growth Percent,A498,69.84%
same,inhibition at 10 µM,A498,31%
same,inhibition at 10 µM,RXF 393,18%
same,Growth Percent,RXF 393,82.62%
same,Growth Percent,SN12C,86.84%
same,inhibition at 10 µM,SN12C,14%
same,inhibition at 10 µM,TK-10,< 10%
same,Growth Percent,TK-10,99.31%
same,inhibition at 10 µM,UO-31,21%
same,Growth Percent,UO-31,79.44%
